Experimental data from patent publication US11045457B2, “Piperidinyl-3-(aryloxy)propanamides and propanoates” (priority 2018, dated 2021).

Molecular target: SSTR4 (Homo sapiens (Human), UniProt P31391)
Experiment: Inhibition of forskolin stimulated cAMP in CHO-K1 cells overexpressing SSTR4
Type: cell-based
Settings: for EC50: read-out: SSTR4 Activity pEC50 (converted)
Experimental: Inhibition of Forskolin Stimulated cAMP in Cells Overexpressing SSTR4
This cell-based assay measures the ability of compounds to inhibit forskolin stimulated cAMP in CHO-K1 cells overexpressing SSTR4. CHO-K1 cells overexpressing SSTR4 (CHO-SSTR4) are purchased from DiscoveRx (product code 95-0059C2). The CHO-SSTR4 cells are maintained in F12K media with 10% Fetal Bovine Serum (Hyclone), 1% Pen/Strep (Life Technologies), and 800 μg/mL G418 (Life Technologies). […] The next day, the culture media is removed from the cells and the cells are washed (added then removed) with Kreb's Ringer Buffer (ZenBio, KRB-1000 mL). […] The cells are incubated in […] for 30 minutes at room temperature. Cellular cAMP levels are detected with a HTRF LANCE Ultra cAMP kit (Perkin Elmer, catalog number TRF0264).
The assay is performed in accordance with the manufacturer's instructions. Five μL of diluted Eu-W8044 labeled streptavidin (dilution: 1:50 in cAMP Detection Buffer) is added to each well. Then 5 μL of diluted biotin cAMP (dilution: 1:150 in cAMP Detection Buffer) is added to each well. The plates are covered and allowed to incubate for 60 minutes at room temperature on a shaker. […] The pEC50 values are generated using Activity Base for Screening Data Management.

Sequence of SSTR4 (P31391 whole entry): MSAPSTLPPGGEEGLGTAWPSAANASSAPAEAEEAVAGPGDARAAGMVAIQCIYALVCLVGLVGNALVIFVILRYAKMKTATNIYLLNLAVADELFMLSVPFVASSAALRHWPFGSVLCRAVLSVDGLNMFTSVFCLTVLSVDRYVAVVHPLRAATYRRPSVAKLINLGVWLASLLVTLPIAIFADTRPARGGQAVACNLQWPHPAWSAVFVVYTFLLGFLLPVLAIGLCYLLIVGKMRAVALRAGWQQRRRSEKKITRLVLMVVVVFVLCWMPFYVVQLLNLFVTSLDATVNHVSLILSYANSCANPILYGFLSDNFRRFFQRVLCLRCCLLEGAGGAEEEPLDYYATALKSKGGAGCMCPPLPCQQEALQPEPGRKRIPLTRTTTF

Cc1cccnc1OCC(C)(C)C(=O)N[C@@H]1CN(C)C[C@H]1c1ccc(C(F)(F)F)nc1 (relative stereo) [Example 57, trans-2,2-dimethyl-N-(1-methyl-4-(6-(trifluoromethyl)pyridin-3-yl)pyrrolidin-3-yl)-3-((3-methylpyridin-2-yl)oxy)propanamide]
EC50: 63.1 nM

O=C(N[C@H]1CCNC[C@@H]1F)C(F)(F)COc1ncccc1C1CC1 [Example 198, 3-((3-cyclopropylpyridin-2-yl)oxy)-2,2-difluoro-N-((3S,4S)-3-fluoropiperidin-4-yl)propanamide]
SSTR4 Activity pEC50: 8.2

CC(C)[C@@H]1CN(C)CC[C@@H]1NC(=O)C(C)(C)COc1ncccc1C(F)(F)F (relative stereo) [Example 34, cis-N-(3-isopropyl-1-methylpiperidin-4-yl)-2,2-dimethyl-3-((3-(trifluoromethyl)pyridin-2-yl)oxy)propanamide]
SSTR4 Activity pEC50: 6.1

CCO[C@@H]1CN(C)C[C@H]1NC(=O)C(C)(C)COc1ccccc1CC (relative stereo) [Example 95, trans-N-(4-ethoxy-1-methylpyrrolidin-3-yl)-3-(2-ethylphenoxy)-2,2-dimethylpropanamide]
EC50: 79.4 nM

Cc1cccnc1OCC(C)(C)C(=O)N[C@H]1CN(C)CC12CC2 [Example 153, (R)-2,2-dimethyl-N-(5-methyl-5-azaspiro[2.4]heptan-7-yl)-3-((3-methylpyridin-2-yl)oxy)propanamide]
SSTR4 Activity pEC50: 8.1

CN1CCC(NC(=O)C(C)(C)COc2cccc3c2CCC3)CC1 [Example 79, 3-((2,3-dihydro-1H-inden-4-yl)oxy)-2,2-dimethyl-N-(1-methylpiperidin-4-yl)propanamide]
SSTR4 Activity pEC50: 7.0

Cc1cccnc1OCC(F)(F)C(=O)N[C@@H]1CCN(C)[C@H](C)C1 [Example 205, N-((2R,4R)-1,2-dimethylpiperidin-4-yl)-2,2-difluoro-3-((3-methylpyridin-2-yl)oxy)propanamide]
SSTR4 Activity pEC50: 6.9

Cc1cccc(C#N)c1OCC(C)(C)C(=O)NC1CCN(C)CC1 [Example 77, 3-(2-cyano-6-methylphenoxy)-2,2-dimethyl-N-(1-methylpiperidin-4-yl)propanamide]
SSTR4 Activity pEC50: 6.4

CC[C@@H]1CN(C)CC[C@H]1NC(=O)C(C)(C)COc1ncccc1C(F)(F)F (single isomer, unassigned) [Example 110, trans-N-(3-ethyl-1-methylpiperidin-4-yl)-2,2-dimethyl-3-((3-(trifluoromethyl)pyridin-2-yl)oxy)propanamide]
EC50: 1 nM

CN1CCC(NC(=O)C(C)(C)COc2ncccc2C(F)(F)F)C(Cl)C1 (stereo not drawn) [Example 120, N-(3-chloro-1-methylpiperidin-4-yl)-2,2-dimethyl-3-((3-(trifluoromethyl)pyridin-2-yl)oxy)propanamide]
SSTR4 Activity pEC50: 5.9

Cc1cc(C#N)cnc1OCC(C)(C)C(=O)NC1CCN(C)CC1 [Example 51, 3-((5-cyano-3-methylpyridin-2-yl)oxy)-2,2-dimethyl-N-(1-methylpiperidin-4-yl)propanamide]
SSTR4 Activity pEC50: 6.1

CC(C)[C@@H]1CN(C)CC[C@H]1NC(=O)C(C)(C)COc1ncccc1C(F)(F)F (relative stereo) [Example 33, trans-N-(3-isopropyl-1-methylpiperidin-4-yl)-2,2-dimethyl-3-((3-(trifluoromethyl)pyridin-2-yl)oxy)propanamide]
EC50: 0.794 nM

CCC1CC(NC(=O)C(C)(C)COc2ncccc2C(F)(F)F)CCN1C (stereo not drawn) [Example 137, N-(2-ethyl-1-methylpiperidin-4-yl)-2,2-dimethyl-3-((3-(trifluoromethyl)pyridin-2-yl)oxy)propanamide]
SSTR4 Activity pEC50: 6.7

Cc1cc(C2CC2)cnc1OCC(C)(C)C(=O)NC1CCN(C)CC1 [Example 8, 3-((5-cyclopropyl-3-methylpyridin-2-yl)oxy)-2,2-dimethyl-N-(1-methylpiperidin-4-yl)propanamide]
SSTR4 Activity pEC50: 7.0

C[C@@H]1CN(C)CC[C@@H]1NC(=O)C(C)(C)COc1ncccc1C1CC1 (racemic) [Example 21, cis-3-((3-cyclopropylpyridin-2-yl)oxy)-N-(1,3-dimethylpiperidin-4-yl)-2,2-dimethylpropanamide]
EC50: 25.1 nM

CN1CCC(NC(=O)C(C)(C)COc2ncc(F)cc2Cl)CC1 [Example 45, 3-((3-chloro-5-fluoropyridin-2-yl)oxy)-2,2-dimethyl-N-(1-methylpiperidin-4-yl)propanamide]
SSTR4 Activity pEC50: 5.8

CN1CC[C@@H](CNC(=O)C(C)(C)COc2ncccc2C(F)(F)F)C1 [Example 37, (S)-2,2-dimethyl-N-((1-methylpyrrolidin-3-yl)methyl)-3-((3-(trifluoromethyl)pyridin-2-yl)oxy)propanamide]
SSTR4 Activity pEC50: 6.3

CN1CCC(NC(=O)C(C)(C)COc2ncccc2C(F)(F)F)C12CCC2 (stereo not drawn) [Example 151, 2,2-dimethyl-N-(5-methyl-5-azaspiro[3.4]octan-8-yl)-3-((3-(trifluoromethyl)pyridin-2-yl)oxy)propanamide]
EC50: 158 nM

CCc1cccnc1OCC(C)(C)C(=O)NC1CCN(C)CC1 [Example 85, 3-((3-ethylpyridin-2-yl)oxy)-2,2-dimethyl-N-(1-methylpiperidin-4-yl)propanamide]
SSTR4 Activity pEC50: 7.1

CN1CCC(NC(=O)C(C)(C)COc2ncccc2C(F)F)CC1 [Example 90, 3-((3-(difluoromethyl)pyridin-2-yl)oxy)-2,2-dimethyl-N-(1-methylpiperidin-4-yl)propanamide]
SSTR4 Activity pEC50: 6.6

Cc1cnc(OCC(C)(C)C(=O)NC2CCN(C)CC2)c(C2CC2)c1 [Example 6, 3-((3-cyclopropyl-5-methylpyridin-2-yl)oxy)-2,2-dimethyl-N-(1-methylpiperidin-4-yl)propanamide]
SSTR4 Activity pEC50: 7.3

CN1CCC(NC(=O)C(C)(C)COc2ncc(Br)cc2C(F)(F)F)CC1 [Example 100, 3-((5-bromo-3-(trifluoromethyl)pyridin-2-yl)oxy)-2,2-dimethyl-N-(1-methylpiperidin-4-yl)propanamide]
SSTR4 Activity pEC50: 7.2

CN1CCC(NC(=O)C(C)(C)COc2nccc3occc23)CC1 [Example 99, 3-(furo[3,2-c]pyridin-4-yloxy)-2,2-dimethyl-N-(1-methylpiperidin-4-yl)propanamide]
SSTR4 Activity pEC50: 7.1

C[C@H]1C[C@H](NC(=O)C(C)(C)COc2ncccc2C(F)(F)F)CN1C (relative stereo) [Example 133, trans-N-(1,5-dimethylpyrrolidin-3-yl)-2,2-dimethyl-3-((3-(trifluoromethyl)pyridin-2-yl)oxy)propanamide]
EC50: 631 nM

CN1CC[C@@H](NC(=O)C(C)(C)COc2ncccc2C(F)(F)F)[C@H](c2ccccc2)C1 (relative stereo) [Example 164, 2,2-dimethyl-N-(trans-1-methyl-3-phenylpiperidin-4-yl)-3-((3-(trifluoromethyl)pyridin-2-yl)oxy)propanamide]
SSTR4 Activity pEC50: 6.6

Cc1ccnc(OCC(C)(C)C(=O)NC2CCN(C)CC2)c1C [Example 88, 3-((3,4-dimethylpyridin-2-yl)oxy)-2,2-dimethyl-N-(1-methylpiperidin-4-yl)propanamide]
SSTR4 Activity pEC50: 6.6

CN1CCC(NC(=O)C(C)(C)COc2ccccc2)CC1 [Example 74, 2,2-dimethyl-N-(1-methylpiperidin-4-yl)-3-phenoxypropanamide]
SSTR4 Activity pEC50: 6.4
